US8758781B2, “Tissue scaffolds derived from forestomach extracellular matrix” (Mesynthes Ltd., priority 2008, dated 2014)

Columns and labels:
S. aureus = assay: Anti-microbial zone of inhibition on Mueller-Hinton agar; format: cell-based; parameters: key: ‘+++’ indicates a bioactivity comparable to the positive control; ‘−’ indicates no bioactivity; details: positive control, solution on sterile filter paper disc
Procedure: Plates of Mueller-Hinton agar were prepared and streaked with 100 μL of 10^8 S. aureus and left to dry for 5-10 minutes. Using sterile technique, discs were transferred to the plates and the plates incubated for 24 hours at 35° C. After 24 hours, plates were digitally imaged and the anti-microbial zone of inhibition around each of the discs was scored relative to the positive control.

[1] = system: PI-3: Parainfluenza virus type 3 (Paramyxoviridae); details: 0.3% PAA/5% Ethanol in PBS
Procedure: (§1) A study was undertaken to examine viral inactivation during the STOF processes and PAA treatment using three model viruses.
(§2) The level of viral inactivation was tested using a scaled-down manufacturing process. This involved spiking high-titre viral stocks of each of the three model viruses into samples representing two different stages of the manufacturing process, and subjecting these spiked samples to a treatment analogous to the corresponding manufacturing step. The level of virus inactivation during each treatment was determined by comparing the viral titres recovered from the spiked samples after each treatment, with viral recovery from untreated samples.
(§3) The model viruses were chosen to include viruses with different physio-chemical characteristics, such as the presence or absence of envelope, type of nucleic acid genome (DNA or RNA) and survival in the environment/resistance to disinfection (Table 22). The amount of infectious virus present in samples was determined by end-point titration and viral titres were expressed as tissue culture infective dose, 50% (TCID50).

[2] = system: FHV-1: Felid herpesvirus type 1 (Herpesviridae); assay: Viral inactivation in scaled-down manufacturing process; details: 0.3% PAA/5% Ethanol in PBS
Procedure: as §1, §2, §3

[3] = system: BEV: Bovine enterovirus (Picornaviridae); assay: as above; details: 0.3% PAA/5% Ethanol in PBS
Procedure: as §1, §2, §3

PC12 cells = assay: PC12 cell differentiation by growth factor released from laminates; format: cell-based; details: growth factor solution control (50 ng/disc); 48 hours
Procedure: Specifically, a collagen gel was prepared as described in Example 3. Once formed the gel was spiked with either human recombinant FGF2 or NGF. Sterile FM scaffold sheets were cut to 8 mm discs, and growth factor spiked collagen gel (10 μL) was applied to one surface. A second FM scaffold disc was applied to the collagen layer to create a laminate sandwich (i.e., FM scaffold/bioactive collagen polymer/FM scaffold). The bioactive FM scaffold laminates were dehydrated at 25° C. for 2 hours to yield a bonded laminate. The FM laminates were produced with FGF2 or NGF at either 0, 250 or 500 ng/disc. The bioactive FM scaffolds were incubated at 37° C. for 24 hours in DMEM (1 mL) to extract the bound growth factor prior to application to a cell monolayer. PC12 cells were seeded onto 24-well plates at 20 k cells/well in DMEM (1 mL) and incubated for 24 hours at 37° C. Media was removed from the cells and replaced with DMEM (1 mL) that had been incubated with the bioactive FM scaffold laminates. Positive control cells were treated with a solution of either FGF2 or NGF at 50 ng/mL final concentration. Cells were incubated for 48 hours. […] Total cells were counted per frame, as well as the total number of cell processes per frame. […] Growth factor stimulated cell differentiation was expressed as the number of cell processes per cell per frame. Results are expressed as Table 19. […]

C[C@H]1c2cccc(O)c2C(=O)C2=C(O)[C@]3(O)C(=O)C(C(N)=O)=C(O)[C@@H](N(C)C)[C@@H]3[C@@H](O)[C@@H]21 [Doxycycline]
Antibacterial score (S. aureus; 30 μg/disc): +++

CC(=O)OO [PAA, peracetic acid]
PAA Inactivation [1]: ≧2.3 log TCID50
PAA Inactivation [2]: ≧2.6 log TCID50
PAA Inactivation [3]: 7.3 log TCID50

poly-L-lysine
Antibacterial score (S. aureus; 5 μg/disc): +++

rhFGF2: human recombinant FGF2 solution, positive control
Relative cell response (cell processes per cell per frame) (PC12 cells): 0.72 ± 0.02

rhNGF: NGF solution, positive control
Relative cell response (cell processes per cell per frame) (PC12 cells): 0.73 ± 0.01
